Assay results reported in US20140073637A1, “AMINO-SUBSTITUTED-ALKYLOXY-BENZO[E]PYRIDO[4,3-B]INDOLE DERIVATIVES AS NEW POTENT KINASE INHIBITORS” (INSTITUT CURIE, priority 2011, published 2014).

Tests used:
121 kinases = assay: Kinase profiling on a set of 121 kinases; format: biochemical; conditions: for Known Targets (%): kinases presenting the highest inhibitions, lists not exhaustive
Protocol: FIG. 1A: The potential inhibition of C14 was tested against 121 kinases, in vitro, at the concentration of 1 μM. The kinase activities, in the presence of C14, are represented, each kinase being represented by a vertical bar. Only 18 kinases have less than 30% activity in the presence of C14.
(§1) The specificity of C14 was tested, in vitro, against 121 kinases representative of the kinome. Assays run in duplicate, at the concentration of 1 μM, were performed by MRC (Dundee, UK). Results are represented in FIG. 1. The main targets are highlighted in FIG. 1B.
(§2) The profiling was performed at the MRC (Dundee University), in duplicate, on a set of 121 kinases. The panel is representative of the major different classes of kinases. Compounds were used at the concentration of 1 μM. In vitro, IC50 were determined on recombinant kinases by Reaction biology Corp (USA).

Aurora A = target: T1, Aurora A (Homo sapiens, UniProt O14965); assay: Kinase profiling in vitro at 1 μM; format: biochemical; conditions: for effect on kinase activity (FIG. 2, in words) / remaining activity at 1 µM: Aurora A; for effect on kinase activity (FIG. 2, in words): recombinant kinase in vitro; for remaining activity at 1 µM: compound at 1 μM, read-out: percentage of remaining activity of recombinant kinase
T1 sequence (O14965 1-403): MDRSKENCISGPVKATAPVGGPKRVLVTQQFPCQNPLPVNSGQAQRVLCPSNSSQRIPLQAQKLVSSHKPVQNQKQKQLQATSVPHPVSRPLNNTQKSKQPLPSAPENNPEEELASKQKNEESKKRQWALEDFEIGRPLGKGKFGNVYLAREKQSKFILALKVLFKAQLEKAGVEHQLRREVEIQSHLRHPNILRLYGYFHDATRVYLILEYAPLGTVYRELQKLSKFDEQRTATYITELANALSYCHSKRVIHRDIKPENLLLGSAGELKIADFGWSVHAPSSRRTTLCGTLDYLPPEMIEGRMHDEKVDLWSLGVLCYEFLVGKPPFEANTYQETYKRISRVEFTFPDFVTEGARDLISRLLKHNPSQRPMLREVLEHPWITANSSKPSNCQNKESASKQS
Protocol: (§3) Assays were run in vitro against recombinant kinases. The activity is reported for each kinase, grey histograms for CH21, white for C14 and gradation grey for C1. […] Therefore, C1 and C14 affect differently the Aurora kinase family.
as §1
In addition, the percentage of remaining activity of recombinant kinases Aurora kinases A and B and Checkpoint kinases 1 and 2 at the concentration of 1 μM of C1, C2 and C14 have been determined.
as §2

Aurora B = Aurora B (Homo sapiens, UniProt Q96GD4); assay: Aurora B inhibition in cells: Histone H3 Ser10 phosphorylation by western blotting and immunofluorescence; format: cell-based; parameters: endogenous in cells; host or cells: U2OS (human osteosarcoma); HeLa also used for the maleate salts; key to Aurora B inhibition: +++: very efficient inhibition; −: no inhibition; conditions: for Aurora B inhibition in cellulo (Histone H3 phosphorylation, in words): U2OS mitotic extracts, 1 μM overnight, western blotting (FIG. 3); for Aurora B inhibition: cells, Histone H3 Ser10 phosphorylation, western blotting and immunofluorescence, compounds 1 μM
Protocol: Actin is used as control of quantity. Cells were incubated overnight in the presence of either C1, or C2 or CH21 or C14 or DMSO(C: control). All compounds were tested at 1 μM. Proteins were detected by western blotting.
Cells were incubated with the different molecules and Aurora B inhibition is estimated by western blotting (WB) and immuno fluorescent experiments. Histone H3 phosphorylated on Ser10 is used as a marker of Aurora B kinase activity and actin as an internal control. Each WB signal is compared to the control in the absence of compound. The efficiency estimated by WB is indicated by +++: very efficient inhibition to −: no inhibition. Immunofluorescent labelling of a mitotic cell by Histone H3 illustrates Aurora B kinase activity. However immunofluorescence is less sensitive than WB. Active molecules are underlined by a square and the intensity of the line indicates the efficiency of inhibition.
FIG. 10A: Immunofluorescence with phospho-Ser10-Histone H3 antibodies. Either the percentage of positive phospho-Ser10-Histone H3 is indicated or a representative mitosis shown. […] Immunofluorescent assays were realized with a specific phospho-antibody and mitotic U2OS cells are recognized by their DNA content stained with Hoechst. On the right, a representative cell or the percentage of H3-S10-P labelled mitosis.
(§4) FIG. 10B: Immunoblotting analysis of histone H3 phosphorylation. U2OS cells were incubated overnight with Nocodazole (50 nM) in the presence of either DMSO (Co) or Compounds (1 μM). Cells were then collected and lyzed. Identical amounts of the lyzed cell samples were run on 18% acrylamide gel containing SDS.
as §4, with “FIGS. 11B and 11C:” for “FIG. 10B:”, “U2OS and HeLa” for “U2OS”
Cells were incubated with the different molecules and Aurora B inhibition is estimated by western blotting and immunofluorescent experiments. Histone H3 phosphorylated on Ser10 is used as a marker of Aurora B kinase activity and actin as an internal control. Results are represented in FIGS. 4 and 10 and Table 3.
Cells were treated by compounds, harvested and lyzed in 9M urea then supplemented with Laemmli sample buffer. Cell extracts were subjected to SDS-PAGE and transferred to nitrocellulose filter (GE Healthcare). After blocking with 5% non-fat milk in PBS for at least 1 hour, the membranes were incubated with the primary antibodies. The following antibodies were used: phospho-Histone H3 Ser10 (1:2000, Upstate Biotechnology), anti LAST1 (Cell signalling), anti Aurora B (epitomics) and anti alpha-tubulin (Sigma) Anti-rabbit horseradish peroxidase (1:5000, GE Healthcare) was used as secondary antibodies. Bands were visualized by ECL technique (Amersham Bioscience).
Cells were seeded on glass coverslips and treated by compounds (1 μM) overnight. After treatment, cells were fixed in 4% formaldhehyde at 37° C. for 15 minutes, then permeabilized for 5 minutes with Triton X-100 in PBS.

RSK1 = RSK1 (Homo sapiens, UniProt Q15418); assay: In vitro assay against recombinant kinases (FIG. 2); format: biochemical
Protocol: as §3, §2

Src = Src (Homo sapiens, UniProt P12931); assay: as above; format: biochemical
Protocol: as §3, §2

RSK2 = RSK2 (Homo sapiens, UniProt P51812); assay: as above; format: biochemical
Protocol: as §3, §2

RSK1, sequence (Q15418 whole entry, species assumed): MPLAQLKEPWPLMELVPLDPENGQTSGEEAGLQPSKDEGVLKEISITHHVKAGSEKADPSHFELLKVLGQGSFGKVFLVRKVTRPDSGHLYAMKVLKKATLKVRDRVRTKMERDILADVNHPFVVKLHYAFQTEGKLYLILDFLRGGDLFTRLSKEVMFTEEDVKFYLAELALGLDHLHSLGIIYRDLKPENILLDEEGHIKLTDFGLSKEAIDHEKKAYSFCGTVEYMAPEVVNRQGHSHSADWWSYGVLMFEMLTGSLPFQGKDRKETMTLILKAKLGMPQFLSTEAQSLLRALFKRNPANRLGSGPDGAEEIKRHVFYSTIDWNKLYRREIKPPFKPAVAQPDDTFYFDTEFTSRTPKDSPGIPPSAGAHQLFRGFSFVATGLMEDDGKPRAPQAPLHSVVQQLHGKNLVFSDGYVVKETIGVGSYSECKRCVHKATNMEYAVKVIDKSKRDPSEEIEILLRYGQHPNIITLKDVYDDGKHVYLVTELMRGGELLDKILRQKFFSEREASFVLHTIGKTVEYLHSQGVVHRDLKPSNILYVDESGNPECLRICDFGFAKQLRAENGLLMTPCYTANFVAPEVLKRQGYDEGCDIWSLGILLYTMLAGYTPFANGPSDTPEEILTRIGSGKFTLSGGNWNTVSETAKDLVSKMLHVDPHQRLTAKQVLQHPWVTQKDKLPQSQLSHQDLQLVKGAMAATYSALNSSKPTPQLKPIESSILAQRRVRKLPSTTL
Aurora B, sequence (Q96GD4 whole entry): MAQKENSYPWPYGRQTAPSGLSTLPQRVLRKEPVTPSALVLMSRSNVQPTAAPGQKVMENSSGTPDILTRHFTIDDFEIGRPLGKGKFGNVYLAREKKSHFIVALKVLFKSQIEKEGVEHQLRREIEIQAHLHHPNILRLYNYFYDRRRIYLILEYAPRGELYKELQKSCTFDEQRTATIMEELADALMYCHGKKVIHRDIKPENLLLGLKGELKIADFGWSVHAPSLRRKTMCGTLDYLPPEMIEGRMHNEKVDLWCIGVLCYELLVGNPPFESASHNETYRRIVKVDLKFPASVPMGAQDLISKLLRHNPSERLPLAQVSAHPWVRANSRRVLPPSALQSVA
Src, sequence (P12931 whole entry, species assumed): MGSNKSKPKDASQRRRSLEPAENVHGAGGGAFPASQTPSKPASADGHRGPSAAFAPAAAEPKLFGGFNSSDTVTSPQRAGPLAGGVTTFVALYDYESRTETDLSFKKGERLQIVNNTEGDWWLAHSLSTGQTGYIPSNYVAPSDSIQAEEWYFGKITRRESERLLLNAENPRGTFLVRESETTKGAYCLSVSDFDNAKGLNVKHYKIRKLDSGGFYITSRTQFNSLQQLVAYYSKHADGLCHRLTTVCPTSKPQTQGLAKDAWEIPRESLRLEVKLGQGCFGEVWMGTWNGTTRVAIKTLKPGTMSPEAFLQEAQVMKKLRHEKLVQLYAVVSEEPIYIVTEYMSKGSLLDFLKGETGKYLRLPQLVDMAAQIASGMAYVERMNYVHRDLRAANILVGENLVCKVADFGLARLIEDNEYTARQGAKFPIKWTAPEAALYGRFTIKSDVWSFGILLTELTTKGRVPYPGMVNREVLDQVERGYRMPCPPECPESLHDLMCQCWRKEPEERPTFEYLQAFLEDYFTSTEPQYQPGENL
RSK2, sequence (P51812 whole entry): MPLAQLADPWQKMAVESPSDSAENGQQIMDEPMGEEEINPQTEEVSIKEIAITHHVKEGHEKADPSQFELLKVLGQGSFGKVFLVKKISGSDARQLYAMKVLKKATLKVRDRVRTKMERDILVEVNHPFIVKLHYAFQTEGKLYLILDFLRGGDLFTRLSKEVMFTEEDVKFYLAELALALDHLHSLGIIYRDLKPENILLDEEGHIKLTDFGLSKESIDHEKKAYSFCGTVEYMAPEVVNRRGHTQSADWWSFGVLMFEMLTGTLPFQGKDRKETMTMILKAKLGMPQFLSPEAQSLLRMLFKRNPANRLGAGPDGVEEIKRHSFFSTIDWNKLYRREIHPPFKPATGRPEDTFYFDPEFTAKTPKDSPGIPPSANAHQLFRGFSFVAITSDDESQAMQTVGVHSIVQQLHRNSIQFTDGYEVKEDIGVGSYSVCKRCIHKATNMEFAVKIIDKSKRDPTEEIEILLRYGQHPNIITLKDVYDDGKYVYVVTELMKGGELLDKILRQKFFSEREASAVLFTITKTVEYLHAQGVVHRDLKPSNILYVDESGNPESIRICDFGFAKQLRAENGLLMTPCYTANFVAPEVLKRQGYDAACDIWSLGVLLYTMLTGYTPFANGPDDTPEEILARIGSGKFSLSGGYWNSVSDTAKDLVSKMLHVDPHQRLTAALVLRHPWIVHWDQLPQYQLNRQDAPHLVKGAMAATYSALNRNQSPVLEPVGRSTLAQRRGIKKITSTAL

Compound	Known Targets (%) (121 kinases)	effect on kinase activity (FIG. 2, in words) (Aurora A)	Aurora B inhibition in cellulo (Histone H3 phosphorylation, in words) (Aurora B)	Aurora B inhibition (Aurora B)	effect on kinase activity (FIG. 2, in words) (RSK1)	effect on kinase activity (FIG. 2, in words) (Src)	effect on kinase activity (FIG. 2, in words) (RSK2)	remaining activity at 1 µM (Aurora A) [%]	number of kinases with less than 30% activity in the presence of compound (121 kinases; 121 kinases tested in vitro at 1 μM)	remaining activity (Aurora A; at 1 μM) [%]
Cc1cncc2c1[nH]c1ccc3cc(OCCN(C)C)ccc3c12 [CH21, 3-(2-N,N-dimethylaminoethyloxy)-8-methyl-7H-benzo[e]pyrido(4,3-b)indole]	NUAK1 TrkA Tak1 Gck Flt3	None of these kinases were significantly affected	no effect	−	None of these kinases were significantly affected	None of these kinases were significantly affected	None of these kinases were significantly affected			
CCc1c[nH]c(=O)c2c1[nH]c1ccc3cc(OC)ccc3c12 [Compound C1, reference compound]	Aurora A Aurora B Chk2 FLT3 Melk	highly inhibited	inhibit efficiently	+++	highly inhibited	highly inhibited	highly inhibited	7		
Cc1c[nH]c(=O)c2c1[nH]c1ccc3cc(OCCN(C)C)ccc3c12 [Compound C14, 3-(2-N,N-Dimethylaminoethoxy)-8-methyl-7H,10H-benzo[e]pyrido(4,3-b)indol-11-one]	Aurora B NUAK1 TrkA Tak1 Gck Chk1 Chk2	not affected	inhibit efficiently	+++	not affected	not affected	not affected	76	18	76
